Values quoted from earlier work in patent US20150237898A1, “STEVIOSIDE BLENDS” (Cargill, Incorporated, priority 2012, published 2015).
Entries after “also recorded” stand apart in the source; their conditions may differ.

Settings: literature

C=C1C[C@@]23CC[C@H]4[C@@](C)(CCC[C@@]4(C)C(=O)O[C@@H]4O[C@H](CO)[C@@H](O)[C@H](O)[C@H]4O)[C@@H]2CC[C@]1(O[C@@H]1O[C@H](CO)[C@@H](O)[C@H](O[C@@H]2O[C@H](CO)[C@@H](O)[C@H](O)[C@H]2O)[C@H]1O[C@@H]1O[C@H](CO)[C@@H](O)[C@H](O)[C@H]1O)C3 [Reb A, rebaudioside A]
sweetening power / sweetness compared with other glycosides: highest sweetening power of all the glycosides; also recorded: more potent and more pleasant tasting than stevioside

C=C1C[C@@]23CC[C@H]4[C@@](C)(CCC[C@@]4(C)C(=O)O[C@@H]4O[C@H](CO)[C@@H](O)[C@H](O)[C@H]4O)[C@@H]2CC[C@]1(O[C@@H]1O[C@H](CO)[C@@H](O)[C@H](O)[C@H]1O[C@@H]1O[C@H](CO)[C@@H](O)[C@H](O)[C@H]1O)C3 [stevioside]
bitterness compared with other glycosides: much more bitter than Reb A and other glycosides | sweetening power / sweetness compared with other glycosides: much less sweet
